These results are taken from US9738603B2, “Complex of glucose derivative and proline, crystal, preparation method and use” (SHANGHAI YINGLI PHARMACEUTICAL CO., LTD., priority 2012, dated 2017).

Entries after “also recorded” stand apart in the source; their conditions may differ.

The series can be described thus: Dynamic vapor sorption test. The series is classed as physicochemical. The conditions noted are these: 25° C.; for weight increased finally: 95% RH; for sensitivity to moisture / hygroscopicity: dynamic vapor sorption isotherm, 0-95% RH. On the procedure: 2. Parameters of dynamic vapor sorption test: The instrument: a dynamic moisture absorption analyzer (DVS Advantage, Surface Measurement System Ltd); Experimental temperature: 25° C.; Adsorption range: 0-95% relative humidity; Step interval: 5% relative humidity; Balance standard of weight gain: less than 0.01% weight change in 5 minutes; Longest time of balance: 120 minutes.

For `OC[C@H]1O[C@@H](c2ccc(Cl)c(Cc3ccc(OCC4(F)COC4)cc3)c2)[C@H](O)[C@@H](O)[C@@H]1O` [compound A, (2S,3R,4R,5S,6R)-2-(4-chloro-3-(4-((3-fluorooxetan-3-yl)methoxy)benzyl)phenyl)-6-(hydroxymethyl)tetrahydro-2H-pyran-3,4,5-triol], the weight increased finally stood at 14.72% and the “sensitivity to moisture / hygroscopicity” value is reported as “sensitive to moisture”. Besides, the moisture absorbed result (relative humidity 50%) is “about 4.8%”.
`OC[C@H]1O[C@@H](c2ccc(Cl)c(Cc3ccc(OCC4(F)COC4)cc3)c2)[C@H](O)[C@@H](O)[C@@H]1O` [eutectic crystal of the complex formed by compound A and L-p] [complex of (2S,3R,4R,5S,6R)-2-(4-chloro-3-(4-((3-fluorooxetan-3-yl)methoxy)benzyl)phenyl)-6-(hydroxymethyl)tetrahydro-2H-pyran-3,4,5-triol and bis(L-proline)]: the weight increased finally result is on record as “about 9.967%” and the “sensitivity to moisture / hygroscopicity” value is given as “not very sensitive to moisture; also recorded: low hygroscopicity”. Further, the “moisture absorbed (weight gain against dry weight)” value (relative humidity increased from 0% to 85% RH) amounted to 2.174%.
